In patent publication US12129265B2, “Therapeutic agents and uses thereof” (Ankh Life Sciences Limited, priority 2020, dated 2024):
pIC50: −log10 of the molar value. Like-named read-outs stand apart in the source and are kept apart here.

Assays:
Assay in all cases: CellTiter-Glo in vitro cell proliferation assay, Example 8
Format in all cases: cell-based, Human
FaDu cells = conditions: H&N - SC, read-out: Mean IC50
Method: (§1) In this Example, in vitro cell proliferation assays were performed using: (1) Human Myeloma tumor cell lines; (2) Human Lymphoma tumor cell lines; (3) Solid Human tumor cell lines; and (4) Parental, Lenalidomide resistant and Bortezomib resistant Jeko-1 Mantle cell Lymphoma tumor cell lines. The compounds tested were three diharmaline compounds, namely the 518B562 (or simply 562), 560, and 561 compounds. In addition, a monoharmaline product designated as 518F014 was also tested. This monoharmaline product had the following structure:
(§2) Each proliferation assay was carried out as follows. The test cells were plated in growth media using a 384-well microtiter plate at 50 μL volume. The cells were incubated for 24 hours at 37° C. in a humidified incubator. After 24 hours of incubation, the test compounds were added to the test wells in DSMO solvent, at concentrations ranging from 0.0075-100 μM. Control wells received equal volumes of DSMO, without compound. Following drugging, the cells were incubated for 72 hours at 37° C. in a humidified incubator. After this exposure, 100 μL of a 1:1 mixture of sterile water and CellTiter-Glo® reagent (Promega) was added to each well. The plates were then incubated for 60 minutes at room temperature, followed by recording the luminescence value of each well using a luminometer as a measure of cell proliferation.

MIA PaCa-2 cells = conditions: MIA PaCa-2, Pancreatic, read-out: Mean IC50
Method: as §1, §2

H1650 (EGFR mut) cells = conditions: read-out: Mean IC50
Method: as §1, §2

MOLP-8 cells = conditions: MOLP-8, MM IgD, read-out: Mean IC50
Method: as §1, §2

MDA-MB-231 cells = conditions: MDA-MB-231, TNBC, read-out: Mean IC50
Method: as §1, §2

A2780CP cells = conditions: Ovarian, read-out: Mean IC50
Method: as §1, §2

BxPC-3 cells = conditions: BxPC-3, Pancreatic, read-out: Mean IC50
Method: as §1, §2

AN3CA cells = conditions: Endometrial, read-out: Mean IC50
Method: as §1, §2

OCI-LY3 cells = conditions: OCI-LY3, ABC-DLBCL, read-out: Mean IC50
Method: as §1, §2

KMM-1 cells = conditions: KMM-1, HMCL-A, read-out: Mean IC50
Method: as §1, §2

JIM1 cells = conditions: JIM1, HMCL, read-out: Mean IC50
Method: as §1, §2

A498 cells = conditions: A498, RCC, read-out: Mean IC50
Method: as §1, §2

HEC-1a cells = conditions: Endometrial, read-out: Mean IC50
Method: as §1, §2

KMS-34 cells = conditions: KMS-34, HMCL-B, read-out: Mean IC50
Method: as §1, §2

A2780 cells = conditions: A2780, Ovarian, read-out: Mean IC50
Method: as §1, §2

H1975 (EGFR mut) cells = conditions: read-out: Mean IC50
Method: as §1, §2

L363 cells = conditions: L363, PCL/MM, read-out: Mean IC50
Method: as §1, §2

ASPC-1 cells = conditions: ASPC-1, Pancreatic, read-out: Mean IC50
Method: as §1, §2

MDA-MB-468 cells = conditions: MDA-MB-468, TNBC, read-out: Mean IC50
Method: as §1, §2

SiHA cells = conditions: Cervical - SC, read-out: Mean IC50
Method: as §1, §2

DOHH-2 cells = conditions: DoHH-2, GCB-DLBCL, read-out: Mean IC50
Method: as §1, §2

HCC70 cells = conditions: HCC70, TNBC, read-out: Mean IC50
Method: as §1, §2

RPMI-8226 cells = conditions: RPMI-8226, HMM
Method: as §2
In this example, different cell lines were subjected to in vitro cell proliferation assays as described in Example 8. In particular, the cell lines are identified in the following Table 17, and the tissue types were: Pancreatic; Endometrial; Triple-Negative Breast Cancer (TNBC); Non-Small-Cell Lung Carcinoma (NSCLC); Ovarian; Renal Cell Carcinoma (RCC); Cervical-Squamous Cell; […] (H&N-Squamous Cell); Germinal Center B Cell-Like Novo Diffuse Large B-Cell Lymphoma (GCB-DLBCL); Activated B-Cell—Diffuse Large B Cell Lymphoma (ABC-DLBCL); Human Myeloma; Human Myeloma Cell Line Lymphocyte-Like; Human Myeloma Cell Line Lymphocyte-Like Myeloma Pleural Effusion Infiltration; Human Multiple Myeloma; Plasma Cell Leukemia/Multiple Myeloma Epstein-Barr Nuclear Antigen-Negative (EBNA-Negative) and to Express mRNA for Proto-Oncogene B-Cell Lymphoma 2 (BCL2); Multiple Myeloma from Peripheral Blood Type IgD Lmabda.

COc1ccc2c3c([nH]c2c1)C(CC(CC1=NCCc2c1[nH]c1cc(OC)ccc21)c1ccc(F)c(Oc2ccccc2)c1)=NCC3 [compound 19]
pIC50 (FaDu cells): 4.35
pIC50 (MIA PaCa-2 cells): 4.44
pIC50 (H1650 (EGFR mut) cells; NSCLC): 4.25
pIC50 (MOLP-8 cells): 5.01
pIC50 (MDA-MB-231 cells): 4.38
pIC50 (A2780CP cells): 4.56
pIC50 (BxPC-3 cells): 4.44
pIC50 (AN3CA cells): 4.64
pIC50 (OCI-LY3 cells): 4.69
pIC50 (KMM-1 cells): 4.59
pIC50 (JIM1 cells): 4.37
pIC50 (A498 cells): 4.05
pIC50 (HEC-1a cells): 4.35
pIC50 (KMS-34 cells): 4.51
pIC50 (A2780 cells): 4.66
pIC50 (H1975 (EGFR mut) cells; NSCLC): 4.26
pIC50 (L363 cells): 4.43
pIC50 (ASPC-1 cells): 4.34
pIC50 (MDA-MB-468 cells): 4.31
pIC50 (SiHA cells): 4.12
pIC50 (DOHH-2 cells): 4.99
pIC50 (HCC70 cells): 4.29
pIC50 (RPMI-8226 cells): 4.98

COc1ccc2c3c([nH]c2c1)C(CC(CC1=NCCc2c1[nH]c1cc(OC)ccc21)c1cccc(F)c1)=NCC3 [compound 20]
pIC50 (FaDu cells): 5.39
pIC50 (MIA PaCa-2 cells): 5.57
pIC50 (H1650 (EGFR mut) cells; NSCLC): 5.35
pIC50 (MOLP-8 cells): 5.64
pIC50 (MDA-MB-231 cells): 5.33
pIC50 (A2780CP cells): 5.30
pIC50 (BxPC-3 cells): 5.65
pIC50 (AN3CA cells): 5.73
pIC50 (OCI-LY3 cells): 5.41
pIC50 (KMM-1 cells): 5.44
pIC50 (JIM1 cells): 5.37
pIC50 (A498 cells): 4.95
pIC50 (HEC-1a cells): 4.96
pIC50 (KMS-34 cells): 5.49
pIC50 (A2780 cells): 5.43
pIC50 (H1975 (EGFR mut) cells; NSCLC): 5.19
pIC50 (L363 cells): 5.41
pIC50 (ASPC-1 cells): 5.44
pIC50 (MDA-MB-468 cells): 5.29
pIC50 (SiHA cells): 5.17
pIC50 (DOHH-2 cells): 5.73
pIC50 (HCC70 cells): 5.20
pIC50 (RPMI-8226 cells): 5.90

COc1ccc2c3c([nH]c2c1)C(CC(CC1=NCCc2c1[nH]c1cc(OC)ccc21)c1ccc(F)cc1)=NCC3 [compound 21]
pIC50 (FaDu cells): 5.20
pIC50 (MIA PaCa-2 cells): 5.36
pIC50 (H1650 (EGFR mut) cells; NSCLC): 5.09
pIC50 (MOLP-8 cells): 5.43
pIC50 (MDA-MB-231 cells): 5.23
pIC50 (A2780CP cells): 5.01
pIC50 (BxPC-3 cells): 5.45
pIC50 (AN3CA cells): 5.41
pIC50 (OCI-LY3 cells): 5.31
pIC50 (KMM-1 cells): 5.19
pIC50 (JIM1 cells): 5.26
pIC50 (A498 cells): 4.93
pIC50 (HEC-1a cells): 4.93
pIC50 (KMS-34 cells): 5.42
pIC50 (A2780 cells): 5.12
pIC50 (H1975 (EGFR mut) cells; NSCLC): 4.94
pIC50 (L363 cells): 5.29
pIC50 (ASPC-1 cells): 5.29
pIC50 (MDA-MB-468 cells): 5.17
pIC50 (SiHA cells): 4.94
pIC50 (DOHH-2 cells): 5.44
pIC50 (HCC70 cells): 4.96
pIC50 (RPMI-8226 cells): 5.45

COc1ccc2c3c([nH]c2c1)C(CC(CC1=NCCc2c1[nH]c1cc(OC)ccc21)c1cc(F)cc(F)c1)=NCC3 [compound 22]
pIC50 (FaDu cells): 4.96
pIC50 (MIA PaCa-2 cells): 5.23
pIC50 (H1650 (EGFR mut) cells; NSCLC): 4.95
pIC50 (MOLP-8 cells): 5.42
pIC50 (MDA-MB-231 cells): 5.15
pIC50 (A2780CP cells): 5.03
pIC50 (BxPC-3 cells): 5.27
pIC50 (AN3CA cells): 5.38
pIC50 (OCI-LY3 cells): 5.01
pIC50 (KMM-1 cells): 5.21
pIC50 (JIM1 cells): 5.13
pIC50 (A498 cells): 4.67
pIC50 (HEC-1a cells): 4.93
pIC50 (KMS-34 cells): 5.41
pIC50 (A2780 cells): 5.04
pIC50 (H1975 (EGFR mut) cells; NSCLC): 4.94
pIC50 (L363 cells): 5.21
pIC50 (ASPC-1 cells): 5.06
pIC50 (MDA-MB-468 cells): 4.94
pIC50 (SiHA cells): 4.93
pIC50 (DOHH-2 cells): 5.37
pIC50 (HCC70 cells): 4.88
pIC50 (RPMI-8226 cells): 5.69

COc1ccc2c3c([nH]c2c1)C(CC(CC1=NCCc2c1[nH]c1cc(OC)ccc21)c1cc(F)c(F)cc1F)=NCC3 [compound 23]
pIC50 (FaDu cells): 5.21
pIC50 (MIA PaCa-2 cells): 5.25
pIC50 (H1650 (EGFR mut) cells; NSCLC): 5.23
pIC50 (MOLP-8 cells): 5.50
pIC50 (MDA-MB-231 cells): 5.23
pIC50 (A2780CP cells): 5.19
pIC50 (BxPC-3 cells): 5.30
pIC50 (AN3CA cells): 5.62
pIC50 (OCI-LY3 cells): 5.26
pIC50 (KMM-1 cells): 5.40
pIC50 (JIM1 cells): 5.20
pIC50 (A498 cells): 4.67
pIC50 (HEC-1a cells): 4.90
pIC50 (KMS-34 cells): 5.46
pIC50 (A2780 cells): 5.29
pIC50 (H1975 (EGFR mut) cells; NSCLC): 5.08
pIC50 (L363 cells): 5.33
pIC50 (ASPC-1 cells): 5.03
pIC50 (MDA-MB-468 cells): 5.18
pIC50 (SiHA cells): 4.93
pIC50 (DOHH-2 cells): 5.43
pIC50 (HCC70 cells): 4.96
pIC50 (RPMI-8226 cells): 5.89

COc1ccc2c3c([nH]c2c1)C(CC(CC1=NCCc2c1[nH]c1cc(OC)ccc21)c1c(F)c(F)c(F)c(F)c1F)=NCC3 [compound 24]
pIC50 (FaDu cells; Homo sapiens): 4.93
pIC50 (MIA PaCa-2 cells; Homo sapiens): 4.89
pIC50 (H1650 (EGFR mut) cells; Homo sapiens, NCI-H1650, NSCLC): 4.90
pIC50 (MOLP-8 cells; Homo sapiens): 4.98
pIC50 (MDA-MB-231 cells; Homo sapiens): 4.68
pIC50 (A2780CP cells; Homo sapiens, A2780C/P): 4.75
pIC50 (BxPC-3 cells; Homo sapiens): 4.97
pIC50 (AN3CA cells; Homo sapiens, AN3-CA): 4.95
pIC50 (OCI-LY3 cells; Homo sapiens): 4.94
pIC50 (KMM-1 cells; Homo sapiens): 4.95
pIC50 (JIM1 cells; Homo sapiens): 4.25
pIC50 (A498 cells; Homo sapiens): 4.08
pIC50 (HEC-1a cells; Homo sapiens): 4.32
pIC50 (KMS-34 cells; Homo sapiens): 5.11
pIC50 (A2780 cells; Homo sapiens): 4.97
pIC50 (H1975 (EGFR mut) cells; Homo sapiens, NCI-H1975, NSCLC): 4.93
pIC50 (L363 cells; Homo sapiens, L-363): 4.88
pIC50 (ASPC-1 cells; Homo sapiens, ASPC1): 4.49
pIC50 (MDA-MB-468 cells; Homo sapiens): 4.78
pIC50 (SiHA cells; Homo sapiens): 4.23
pIC50 (DOHH-2 cells; Homo sapiens): 5.25
pIC50 (HCC70 cells; Homo sapiens): 4.59
pIC50 (RPMI-8226 cells; Homo sapiens): 5.30

COc1ccc2c3c([nH]c2c1)C(CC(CC1=NCCc2c1[nH]c1cc(OC)ccc21)c1ccc(Cl)cc1)=NCC3 [compound 27]
pIC50 (FaDu cells): 4.95
pIC50 (MIA PaCa-2 cells): 5.23
pIC50 (H1650 (EGFR mut) cells; NSCLC): 4.95
pIC50 (MOLP-8 cells): 5.40
pIC50 (MDA-MB-231 cells): 5.13
pIC50 (A2780CP cells): 4.95
pIC50 (BxPC-3 cells): 5.34
pIC50 (AN3CA cells): 5.36
pIC50 (OCI-LY3 cells): 5.03
pIC50 (KMM-1 cells): 5.14
pIC50 (JIM1 cells): 4.94
pIC50 (A498 cells): 4.93
pIC50 (HEC-1a cells): 4.93
pIC50 (KMS-34 cells): 5.35
pIC50 (A2780 cells): 5.09
pIC50 (H1975 (EGFR mut) cells; NSCLC): 4.94
pIC50 (L363 cells): 5.11
pIC50 (ASPC-1 cells): 5.13
pIC50 (MDA-MB-468 cells): 4.97
pIC50 (SiHA cells): 4.94
pIC50 (DOHH-2 cells): 5.60
pIC50 (HCC70 cells): 4.94
pIC50 (RPMI-8226 cells): 5.49
